The conditions of data set [1]: cited from earlier work.
The nature of data set [2]: Equilibrium solubility in water. The settings on record: obs. temp. 40 °C.
Data set [3] in a line: Solubility determination in oil (cottonseed oil, sesame oil). As to the method: A known amount of test substance (˜40 mg) was weighed into the vial, 100 μL of oil was added and heated to 60° C. and then system was slurried to reach equilibrium. […] Extra oil was added into the vial once compound precipitated out and then the system was re-equilibrated at 1000 rpm at room temperature (25° C.). Final concentration was determined by HPLC method as described below in Table 6a and 6b.

Data set [4] can be described thus: Plasma stability assay, rat plasma. The data set is classed as in vitro ADME. To be noted: 37° C., 10 μM.
In the next data set the target is T1, KOR (Homo sapiens, UniProt P41145).
T1 construct: expressed in transfected cells; membranes prepared from them
T1 sequence (P41145 whole entry): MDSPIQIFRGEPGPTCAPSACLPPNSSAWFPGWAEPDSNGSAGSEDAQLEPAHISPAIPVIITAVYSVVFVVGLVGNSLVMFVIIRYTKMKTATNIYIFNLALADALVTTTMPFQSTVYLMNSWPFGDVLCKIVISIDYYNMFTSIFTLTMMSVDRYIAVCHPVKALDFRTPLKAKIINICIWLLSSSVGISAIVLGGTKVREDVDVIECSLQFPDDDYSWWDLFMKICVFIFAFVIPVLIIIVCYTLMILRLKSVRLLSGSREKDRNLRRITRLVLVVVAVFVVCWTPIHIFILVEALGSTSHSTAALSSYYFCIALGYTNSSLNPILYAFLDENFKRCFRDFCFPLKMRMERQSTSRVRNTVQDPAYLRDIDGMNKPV
Description: Opioid receptor binding assay, KOR ([3H]Diprenorphine). To be noted: for %Inh@MaxDose: KOR, MaxDose 10000 nM.

Data set [5] is described as follows: Polymorph screening of solid state drug substances. The settings on record: for XRPD results (Dried): stirred 50 °C 72 hours, solids dried; for Visual observation 50° C. / Visual observation RT: target conc. 100 mg/ml.
The target of the next data set is T2, MOR (Homo sapiens, UniProt P35372).
T2 construct: expressed in transfected cells; membranes prepared from them
T2 sequence (P35372 whole entry): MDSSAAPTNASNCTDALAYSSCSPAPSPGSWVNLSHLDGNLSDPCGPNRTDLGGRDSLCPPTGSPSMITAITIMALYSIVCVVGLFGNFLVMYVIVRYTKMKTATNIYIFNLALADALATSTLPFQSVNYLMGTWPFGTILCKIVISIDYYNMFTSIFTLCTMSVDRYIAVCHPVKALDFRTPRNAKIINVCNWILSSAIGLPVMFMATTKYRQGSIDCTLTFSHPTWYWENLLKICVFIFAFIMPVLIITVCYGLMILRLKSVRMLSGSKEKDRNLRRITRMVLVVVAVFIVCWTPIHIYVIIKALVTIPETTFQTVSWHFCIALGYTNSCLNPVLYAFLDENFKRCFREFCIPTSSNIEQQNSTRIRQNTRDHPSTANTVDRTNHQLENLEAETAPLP
Nature of the data set: Opioid receptor binding assay, MOR ([3H]DAMGO). To be noted: for %Inh@MaxDose: MOR, MaxDose 10000 nM.

A short description of data set [6]: Plasma stability assay, dog plasma. The data set is classed as in vitro ADME. To be noted: 37° C., 2 μM. How it is done:
(§1) Plasma stability determination of the test compounds in rat, dog, cynomolgus monkey and human plasma is performed using HPLC-MS. For rat, incubations are carried out in 96-well polypropylene plates in 5 aliquots of 70 μL each (one for each time point). […] Five time points are analyzed (0, 15, 120, 480 and 1440 min). […] All incubations are performed in duplicates. The samples are analyzed by HPLC-MS. The percentage of parent compound remaining after incubation in plasma is determined.

The nature of data set [7]: Liver S9 fraction stability, monkey. The data set is classed as in vitro ADME, cynomolgus monkey. To be noted: 1.0 mg/ml S9 protein, 2 μM, 37° C. As to the method: (§2) Liver S9 fraction stability determination of the test compounds in dog, cynomolgus monkey and human is performed using HPLC-MS. Test compound (2 μM, 0.1% DMSO, 1% Methanol final concentration) was assessed for stability in a 50 μl phosphate buffer containing 1.0 mg/ml S9 protein from each of the three species and 5 mM D-saccharic acid-1, 4-lactone. Samples were incubated at 37° C. for 60 minutes and the % compound remaining was assessed.

The target in a further data set is T3, DOR (Homo sapiens, UniProt P41143).
T3 construct: expressed in transfected cells; membranes prepared from them
T3 sequence (P41143 whole entry): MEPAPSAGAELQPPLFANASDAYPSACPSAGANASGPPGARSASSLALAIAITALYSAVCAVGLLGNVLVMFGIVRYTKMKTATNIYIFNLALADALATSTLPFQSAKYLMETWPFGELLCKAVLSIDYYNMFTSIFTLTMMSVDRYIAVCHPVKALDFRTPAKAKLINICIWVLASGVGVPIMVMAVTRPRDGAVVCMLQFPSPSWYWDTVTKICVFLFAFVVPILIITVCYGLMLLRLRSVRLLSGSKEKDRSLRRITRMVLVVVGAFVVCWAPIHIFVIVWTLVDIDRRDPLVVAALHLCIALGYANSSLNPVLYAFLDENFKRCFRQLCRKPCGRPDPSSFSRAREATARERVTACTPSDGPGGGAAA
Description: Opioid receptor binding assay, DOR ([3H]-DADLE). To be noted: DOR, MaxDose 10000 nM.

Data set [8] can be described thus: Liver S9 fraction stability, human. To be noted: 1.0 mg/ml S9 protein, 2 μM, 37° C. The data set is classed as in vitro ADME. As to the method:
as §2

A short description of data set [9]: Rat pharmacokinetic studies, intramuscular. To be noted: rat IM. The data set is classed as in vivo, male Sprague Dawley Rats.
Data set [10] in a line: Liver S9 fraction stability, dog. The data set is classed as in vitro ADME. To be noted: 1.0 mg/ml S9 protein, 2 μM, 37° C. How it is done: as §2
The nature of data set [11]: Plasma stability assay, human plasma. The data set is classed as in vitro ADME. To be noted: 37° C., 2 μM. As to the method:
as §1

Data set [12] can be described thus: Plasma stability assay, monkey plasma. The data set is classed as in vitro ADME, cynomolgus monkey. To be noted: 37° C., 2 μM. As to the method: as §1
The mark [13] stands for this setting: heating temp. 60 °C, obs. temp. 40 °C.
Where [14] appears, read: 80 mg/kg, Cottonseed + 1% Benzyl Alcohol.
Setting [15] is: 123 mg/kg, Cottonseed oil + 1% Benzyl Alcohol.

This is an account of results in patent publication US10525055B2, “Opioid receptor antagonist prodrugs” (Nirsum Laboratories, Inc., priority 2017, dated 2020).

As for `Oc1ccc2c3c1O[C@H]1[C@H](O)CC[C@@]4(O)[C@@H](C2)N(CC2CC2)CC[C@]314` [6-β-naltrexol], the “time of peak plasma levels after oral dosing” value in [1] is “one”. In addition, the mean elimination half-life result in data set [1] (oral) is reported as “thirteen”.
`C=C1CC[C@@]2(O)[C@H]3Cc4ccc(O)c5c4[C@@]2(CCN3CC2CC2)[C@H]1O5` [61 (Nalmefene)]: the “Equilibrium solubility (mg/mL) Water” value in data set [2] (heating temp. 60 °C) is 0.025 mg/mL. In [3] (Cottonseed oil, heating temp. 60 °C, obs. temp. 40 °C), the “Approximate Solubility (mg/mL) in Excipient: Cottonseed oil” value was less than 25.0 mg/mL. The “Approximate Solubility (mg/mL) in Excipient: Ethanol” value in [3] (Ethanol, heating temp. 60 °C, obs. temp. 40 °C) was 102 to 137 mg/mL. In data set [3] (setting [13]), the “Approximate Solubility (mg/mL) in Excipient: Sesame oil” value (from here on “Approximate Solubility … Sesame oil”) is less than 25.5 mg/mL.
Turning to `C=C1CC[C@@]2(O)C3Cc4ccc(OC(=O)CCCCCCCCCCCCCCCCC)c5c4[C@@]2(CCN3CC2CC2)[C@H]1O5` [Compound 12, (4aS,7aS,12bS)-3-(cyclopropylmethyl)-4a-hydroxy-7-methylene-2,3,4,4a,5,6,7,7a-octahydro-1H-4,12-methanobenzofuro[3,2-e]isoquinolin-9-yl stearate], in data set [2] (heating temp. 40 °C), the “Equilibrium solubility (mg/mL) Water” value stood at 0.026 mg/mL. The “Approximate Solubility … Sesame oil” value in data set [3] (heating temp. 60 °C, obs. temp. 25 °C) is given as less than 50 mg/mL; in [3] (setting [13]) it was more than 411.1 mg/mL.
For orientation: IC50 means the concentration at which inhibition is half-maximal. For the compound `C=C1CC[C@@]2(O)C3Cc4ccc(OC(=O)CCCCCCCCCCCCCCCCCCCCC)c5c4[C@@]2(CCN3CC2CC2)[C@H]1O5` [Compound 14, (4aS,7aS,12bS)-3-(cyclopropylmethyl)-4a-hydroxy-7-methylene-2,3,4,4a,5,6,7,7a-octahydro-1H-4,12-methanobenzofuro[3,2-e]isoquinolin-9-yl docosanoate], in data set [4], the “% remaining at time point in minutes, 0 min” value is 100%; the “% remaining at time point in minutes, 15 min” value is 94%; the “% remaining at time point in minutes, 120 min” value was 112%; the “% remaining at time point in minutes, 480 min” value stood at 107%. In addition, the “% remaining at time point in minutes, 1440 min” value in [4] is given as 120%. Also, in data set [2] (heating temp. 40 °C), the “Equilibrium solubility (mg/mL) Water” value is listed as 0.0056 mg/mL. In addition, on KOR, the IC50 turned out to be 1770 nM and the “%Inh@MaxDose” value is 68.1%. In addition, in data set [5] (Acetone), the “XRPD results (Dried)” value is on record as “Pattern A”, the “Visual observation 50° C.” value was “Clear” and the “Visual observation RT” value is “Slimy”. In addition, in data set [5] (EtOAc), the “XRPD results (Dried)” value is given as “Pattern A”, the “Visual observation 50° C.” value is recorded as “Clear” and the “Visual observation RT” value was “Slurry”. Further, in data set [5] (Heptane), the “XRPD results (Dried)” value is “Pattern B”, the “Visual observation 50° C.” value was “Slurry” and the “Visual observation RT” value is “Slurry”. Also, in data set [5] (Isopropanol), the “XRPD results (Dried)” value is reported as “Pattern A”, the “Visual observation 50° C.” value is “Clear” and the “Visual observation RT” value was “Clear”. For the same compound, in data set [5] (MTBE), the “XRPD results (Dried)” value is recorded as “Pattern A”, the “Visual observation 50° C.” value was “Clear” and the “Visual observation RT” value is recorded as “Clear”. Moreover, at MOR, the IC50 is 12.5 nM and the “%Inh@MaxDose” value stood at 92.7%. In addition, the “Approximate Solubility … Sesame oil” value in [3] (heating temp. 40 °C, obs. temp. 40 °C) was less than 51 mg/mL.
In the case of `C=C1CC[C@@]2(O)C3Cc4ccc(OCOC(=O)OCCCCCCCCCCCC)c5c4[C@@]2(CCN3CC2CC2)[C@H]1O5` [Compound 24, (((4aS,7aS,12bS)-3-(cyclopropylmethyl)-4a-hydroxy-7-methylene-2,3,4,4a,5,6,7,7a-octahydro-1H-4,12-methanobenzofuro[3,2-e]isoquinolin-9-yl)oxy)methyl dodecyl carbonate], the “% remaining at time point in minutes, 0 min” value in data set [6] (0 min), in data set [4], in [11] (0 min) and in data set [12] (0 min) was 100% throughout. In addition, the “% remaining at time point in minutes, 15 min” value was determined as 94.7% in [6] (15 min (as headed)), 32% in [4], 94% in data set [11] (15 min (as headed)) and 90.7% in [12] (15 min (as headed)). The “% remaining at time point in minutes, 120 min” value in [6] (120 min (as headed)) was 104.5%; in [4] it was 11.8%; in data set [11] (120 min (as headed)), 102.3%; in data set [12] (120 min (as headed)), 93.5%. Also, the “% remaining at time point in minutes, 480 min” value stood at 115.7% in data set [6] (480 min (as headed)), 8.2% in data set [4], 105.3% in data set [11] (480 min (as headed)) and 96.2% in [12] (480 min (as headed)). Moreover, the “% remaining at time point in minutes, 1440 min” value came out at 116.2% in data set [6] (1440 min (as headed)), 3% in [4], 112.5% in [11] (1440 min (as headed)) and 97.8% in data set [12] (1440 min (as headed)). In [7], the “Liver S9 Fraction Stability % remaining at 60 minutes, Monkey” value was 3%. Besides, the “%Inh@MaxDose” value at DOR was 48%; on KOR it was 82.9%; on MOR, 88.7%. Besides, the “Liver S9 Fraction Stability % remaining at 60 minutes, Human” value in [8] is listed as 3.5%. Moreover, the “AUC0-inf (ng · h/mL) prodrug” value in data set [9] (setting [14]) amounted to 147 ng·h/mL; in data set [9] (setting [15]), 547 ng·h/mL; in [9] (165 mg/kg, Cottonseed oil + 1% Benzyl Alcohol) it was 453 ng·h/mL. In addition, the “Half-life t1/2 (hour) prodrug” value in data set [9] (setting [14]) turned out to be 398 h; in data set [9] (setting [15]), 717 h. Also, the “Liver S9 Fraction Stability % remaining at 60 minutes, Dog” value in data set [10] was 3.6%.
Take `O=C(CCC1CCCC1)Oc1ccc2c3c1O[C@H]1C(=O)CC[C@@]4(O)C(C2)N(CC2CC2)CC[C@]314` [Compound 43, (4aS,7aR,12bS)-3-(cyclopropylmethyl)-4a-hydroxy-7-oxo-2,3,4,4a,5,6,7,7a-octahydro-1H-4,12-methanobenzofuro[3,2-e]isoquinolin-9-yl 3-cyclopentylpropanoate]: the “Equilibrium solubility (mg/mL) Water” value in [2] (heating temp. 40 °C) turned out to be 0.048 mg/mL.
With `O=C1CC[C@@]2(O)[C@H]3Cc4ccc(O)c5c4[C@@]2(CCN3CC2CC2)[C@H]1O5` [naltrexone, 17-(cyclopropylmethyl)-4,5α-epoxy-3,14-dihydroxymorphinan-6-one, reference compound], the “time of peak plasma levels after oral dosing” value in [1] is listed as “one”.
